Assay results from US9944645B2, “Imidazotriazines and imidazopyrimidines as kinase inhibitors” (Incyte Holdings Corporation, priority 2006, dated 2018).

These compounds were tested against c-Met kinase (h-Met; histidine-tagged c-Met catalytic domain fusion protein) (Homo sapiens (Human), UniProt P08581) (assay: In Vitro c-Met Kinase Enzyme Assays). Settings: phosphorylation of poly Glu-Tyr, 5 μM ATP, 25 minutes at 30° C.
Format: biochemical
Summary of the method: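 His-tagged c-Met catalytic domain reacted 25 min at 30° C, within the linear initial-rate range. Phosphotyrosine detected by ELISA with peroxidase-labeled anti-phospho-tyrosine antibody and TMB, OD read at 450 nm (540 nm correction); IC50 from curve fit.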

Sequence of c-Met kinase (h-Met; histidine-tagged c-Met catalytic domain fusion protein) (P08581 1078-1345): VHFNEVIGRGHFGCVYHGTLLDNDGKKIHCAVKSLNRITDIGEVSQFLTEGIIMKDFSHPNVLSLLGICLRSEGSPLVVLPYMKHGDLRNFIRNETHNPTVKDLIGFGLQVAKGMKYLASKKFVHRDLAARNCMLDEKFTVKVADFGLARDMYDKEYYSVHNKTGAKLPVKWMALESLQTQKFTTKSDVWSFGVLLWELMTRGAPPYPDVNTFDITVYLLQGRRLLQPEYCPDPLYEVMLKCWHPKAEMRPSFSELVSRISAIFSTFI

IC50, < 500 nM:
O=C(NC1CCOCC1)c1ccc(-c2cnc3ncc(Cc4ccc5ncccc5c4)n3n2)cc1F [Example 125, 2-Fluoro-4-[7-(quinolin-6-ylmethyl)imidazo[1,2-b][1,2,4]triazin-2-yl]-N-(tetrahydro-2H-pyran-4-yl)benzamide]
O=C(c1ccc(-c2cnc3ncc(Cc4ccc5ncccc5c4)n3n2)cc1F)N1CC[C@@H](O)C1 [Example 126, (3R)-1-{2-Fluoro-4-[7-(quinolin-6-ylmethyl)imidazo[1,2-b][1,2,4]triazin-2-yl]benzoyl}pyrrolidin-3-ol]
NC(=O)c1ccc(-c2cnc3ncc(Cc4ccc5ncccc5c4)n3n2)cc1F [Example 127, 2-Fluoro-4-[7-(quinolin-6-ylmethyl)imidazo[1,2-b][1,2,4]triazin-2-yl]benzamide]
O=C(N[C@H]1CC[C@H](O)CC1)c1ccc(-c2cnc3ncc(Cc4ccc5ncccc5c4)n3n2)cc1F [Example 128, 2-Fluoro-N-(trans-4-hydroxycyclohexyl)-4-[7-(quinolin-6-ylmethyl)imidazo[1,2-b][1,2,4]triazin-2-yl]benzamide]
Fc1cc(-c2cnc3ncc(Cc4ccc5ncccc5c4)n3n2)ccc1-n1ccnc1 [Example 129, 6-{2-[3-Fluoro-4-(1H-imidazol-1-yl)phenyl]imidazo[1,2-b][1,2,4]triazin-7-ylmethyl}quinoline]
O=C1OCCN1c1ccc(-c2cnc3ncc(Cc4ccc5ncccc5c4)n3n2)cc1F [Example 130, 3-{2-Fluoro-4-[7-(quinolin-6-ylmethyl)imidazo[1,2-b][1,2,4]triazin-2-yl]phenyl}-1,3-oxazolidin-2-one]
CNC(=O)[C@@H](NC(=O)c1ccc(-c2cnc3ncc(Cc4ccc5ncccc5c4)n3n2)cc1F)C(C)(C)C [Example 131, N-(1S)-2,2-Dimethyl-1-[(methylamino)carbonyl]propyl-2-fluoro-4-[7-(quinolin-6-ylmethyl)imidazo[1,2-b][1,2,4]triazin-2-yl]benzamide]
CN(C)C(=O)[C@@H](NC(=O)c1ccc(-c2cnc3ncc(Cc4ccc5ncccc5c4)n3n2)cc1F)C(C)(C)C [Example 132, N-(1S)-1-[(Dimethylamino)carbonyl]-2,2-dimethylpropyl-2-fluoro-4-[7-(quinolin-6-ylmethyl)imidazo[1,2-b][1,2,4]triazin-2-yl]benzamide]
CC(C)(C)[C@H](NC(=O)c1ccc(-c2cnc3ncc(Cc4ccc5ncccc5c4)n3n2)cc1F)C(=O)N1CCC1 [Example 133, N-[(1S)-1-(Azetidin-1-ylcarbonyl)-2,2-dimethylpropyl]-2-fluoro-4-[7-(quinolin-6-ylmethyl)imidazo[1,2-b][1,2,4]triazin-2-yl]benzamide]
CC(C)C[C@H](NC(=O)c1ccc(-c2cnc3ncc(Cc4ccc5ncccc5c4)n3n2)cc1F)C(=O)N(C)C [Example 134, N-{(1S)-1-[(Dimethylamino)carbonyl]-3-methylbutyl}-2-fluoro-4-[7-(quinolin-6-ylmethyl)imidazo[1,2-b][1,2,4]triazin-2-yl]benzamide]
CNC(=O)[C@@H](CC(C)C)NC(=O)c1ccc(-c2cnc3ncc(Cc4ccc5ncccc5c4)n3n2)cc1F [Example 135, 2-Fluoro-N-{(1R)-3-methyl-1-[(methylamino)carbonyl]butyl}-4-[7-(quinolin-6-ylmethyl)imidazo[1,2-b][1,2,4]triazin-2-yl]benzamide]
CC(C)C[C@@H](NC(=O)c1ccc(-c2cnc3ncc(Cc4ccc5ncccc5c4)n3n2)cc1F)C(=O)N(C)C [Example 136, N-{(1R)-1-[(Dimethylamino)carbonyl]-3-methylbutyl}-2-fluoro-4-[7-(quinolin-6-ylmethyl)imidazo[1,2-b][1,2,4]triazin-2-yl]benzamide]
CC(C)C[C@@H](NC(=O)c1ccc(-c2cnc3ncc(Cc4ccc5ncccc5c4)n3n2)cc1F)C(=O)N1CCC1 [Example 137, N-[(1R)-1-(Azetidin-1-ylcarbonyl)-3-methylbutyl]-2-fluoro-4-[7-(quinolin-6-ylmethyl)imidazo[1,2-b][1,2,4]triazin-2-yl]benzamide]
N#CCCn1cc(-c2cnc3ncc(Cc4ccc5ncccc5c4)n3n2)cn1 [Example 138, 3-{4-[7-(Quinolin-6-ylmethyl)imidazo[1,2-b][1,2,4]triazin-2-yl]-1H-pyrazol-1-yl}propanenitrile]
N#CCn1cc(-c2cnc3ncc(Cc4ccc5ncccc5c4)n3n2)cn1 [Example 139, 4-[7-(Quinolin-6-ylmethyl)imidazo[1,2-b][1,2,4]triazin-2-yl]-1H-pyrazol-1-ylacetonitrile]
NC(=O)Cn1cc(-c2cnc3ncc(Cc4ccc5ncccc5c4)n3n2)cn1 [Example 140, 2-{4-[7-(Quinolin-6-ylmethyl)imidazo[1,2-b][1,2,4]triazin-2-yl]-1H-pyrazol-1-yl}acetamide]
COC(=O)N1CCC(n2cc(-c3cnc4ncc(Cc5ccc6ncccc6c5)n4n3)cn2)CC1 [Example 141, Methyl 4-{4-[7-(quinolin-6-ylmethyl)imidazo[1,2-b][1,2,4]triazin-2-yl]-1H-pyrazol-1-yl}piperidine-1-carboxylate]
O=C(N[C@H]1CCC[C@@H]1O)c1ccc(-c2cnc3ncc(Cc4ccc5ncccc5c4)n3n2)cc1F [Example 142, 2-Fluoro-N-[(1S,2S)-2-hydroxycyclopentyl]-4-[7-(quinolin-6-ylmethyl)imidazo[1,2-b][1,2,4]triazin-2-yl]benzamide]
O=C(NCCO)c1ccc(-c2cnc3ncc(Cc4ccc5ncccc5c4)n3n2)cc1F [Example 143, 2-Fluoro-N-(2-hydroxyethyl)-4-[7-(quinolin-6-ylmethyl)imidazo[1,2-b][1,2,4]triazin-2-yl]benzamide]
COCC1(NC(=O)c2ccc(-c3cnc4ncc(Cc5ccc6ncccc6c5)n4n3)cc2F)CCC1 [Example 144, 2-Fluoro-N-[1-(methoxymethyl)cyclobutyl]-4-[7-(quinolin-6-ylmethyl)imidazo[1,2-b][1,2,4]triazin-2-yl]benzamide]
COCC1(NC(=O)c2ccc(-c3cnc4ncc(Cc5ccc6ncccc6c5)n4n3)cc2F)CCOCC1 [Example 145, 2-Fluoro-N-[4-(methoxymethyl)tetrahydro-2H-pyran-4-yl]-4-[7-(quinolin-6-ylmethyl)imidazo[1,2-b][1,2,4]triazin-2-yl]benzamide]
O=C(NCC1CC1)c1ccc(-c2cnc3ncc(Cc4ccc5ncccc5c4)n3n2)cc1F [Example 146, N-(Cyclopropylmethyl)-2-fluoro-4-[7-(quinolin-6-ylmethyl)imidazo[1,2-b][1,2,4]triazin-2-yl]benzamide]
O=C(NCC1CCOCC1)c1ccc(-c2cnc3ncc(Cc4ccc5ncccc5c4)n3n2)cc1F [Example 147, 2-Fluoro-4-[7-(quinolin-6-ylmethyl)imidazo[1,2-b][1,2,4]triazin-2-yl]-N-(tetrahydro-2H-pyran-4-ylmethyl)benzamide]
CN(C)CCNC(=O)c1ccc(-c2cnc3ncc(Cc4ccc5ncccc5c4)n3n2)cc1F [Example 148, N-[2-(Dimethylamino)ethyl]-2-fluoro-4-[7-(quinolin-6-ylmethyl)imidazo[1,2-b][1,2,4]triazin-2-yl]benzamide]
O=C(NCCN1CCCCC1)c1ccc(-c2cnc3ncc(Cc4ccc5ncccc5c4)n3n2)cc1F [Example 149, 2-Fluoro-N-(2-piperidin-1-ylethyl)-4-[7-(quinolin-6-ylmethyl)imidazo[1,2-b][1,2,4]triazin-2-yl]benzamide]
CN1CCCC1CCNC(=O)c1ccc(-c2cnc3ncc(Cc4ccc5ncccc5c4)n3n2)cc1F (centres unmarked) [Example 150, 2-Fluoro-N-[2-(1-methylpyrrolidin-2-yl)ethyl]-4-[7-(quinolin-6-ylmethyl)imidazo[1,2-b][1,2,4]triazin-2-yl]benzamide]
O=C(NCc1ccccn1)c1ccc(-c2cnc3ncc(Cc4ccc5ncccc5c4)n3n2)cc1F [Example 151, 2-Fluoro-N-(pyridin-2-ylmethyl)-4-[7-(quinolin-6-ylmethyl)imidazo[1,2-b][1,2,4]triazin-2-yl]benzamide]
O=C(NCc1cccnc1)c1ccc(-c2cnc3ncc(Cc4ccc5ncccc5c4)n3n2)cc1F [Example 152, 2-Fluoro-N-(pyridin-3-ylmethyl)-4-[7-(quinolin-6-ylmethyl)imidazo[1,2-b][1,2,4]triazin-2-yl]benzamide]
O=C(NCc1ccncc1)c1ccc(-c2cnc3ncc(Cc4ccc5ncccc5c4)n3n2)cc1F [Example 153, 2-Fluoro-N-(pyridin-4-ylmethyl)-4-[7-(quinolin-6-ylmethyl)imidazo[1,2-b][1,2,4]triazin-2-yl]benzamide]
O=C(NCCc1ccccn1)c1ccc(-c2cnc3ncc(Cc4ccc5ncccc5c4)n3n2)cc1F [Example 154, 2-Fluoro-N-(2-pyridin-2-ylethyl)-4-[7-(quinolin-6-ylmethyl)imidazo[1,2-b][1,2,4]triazin-2-yl]benzamide]
CC(NC(=O)c1ccc(-c2cnc3ncc(Cc4ccc5ncccc5c4)n3n2)cc1F)c1cccnc1 (centres unmarked) [Example 155, 2-Fluoro-N-(1-pyridin-3-ylethyl)-4-[7-(quinolin-6-ylmethyl)imidazo[1,2-b][1,2,4]triazin-2-yl]benzamide]
CC(NC(=O)c1ccc(-c2cnc3ncc(Cc4ccc5ncccc5c4)n3n2)cc1F)c1ccncc1 (centres unmarked) [Example 156, 2-Fluoro-N-(1-pyridin-4-ylethyl)-4-[7-(quinolin-6-ylmethyl)imidazo[1,2-b][1,2,4]triazin-2-yl]benzamide]
